Read-outs that look alike come from different tables or passages of the source. Each block holds one compound with its values, some of them ahead of it.
Target: T1, thromboxane A2 receptors (TPα) of human platelets (Homo sapiens, UniProt P21731)
T1 construct: endogenous in cells; host or cells: human platelets
T1 sequence (P21731 1-343): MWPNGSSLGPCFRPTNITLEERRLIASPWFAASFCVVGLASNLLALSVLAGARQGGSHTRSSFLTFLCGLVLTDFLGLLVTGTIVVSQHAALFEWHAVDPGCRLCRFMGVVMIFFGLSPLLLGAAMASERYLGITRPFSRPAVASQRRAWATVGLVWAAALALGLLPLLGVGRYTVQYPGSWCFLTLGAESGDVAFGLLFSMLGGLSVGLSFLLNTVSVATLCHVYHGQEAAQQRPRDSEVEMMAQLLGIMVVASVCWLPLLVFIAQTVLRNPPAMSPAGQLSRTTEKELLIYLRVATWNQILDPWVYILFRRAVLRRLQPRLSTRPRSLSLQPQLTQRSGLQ
Experiment: Binding test: displacement of [3H]SQ-29.548 from human platelet thromboxane A2 receptors
Conditions: for inhibition at 1 µM: read-out: Affinity: percent of [3H]SQ-29.548 specifically substituted by the examined compound, compound 10^-6 M; for inhibition at 0.1 µM: read-out: Affinity: percent of [3H]SQ-29.548 specifically substituted by the examined compound, compound 10^-7 M
From the text: To operate a first selection, the capacity of these compounds to displace in a specific way a tritium ligand, the [^3H]
Cozzi P., Giordani A., Menichincheri M., Pillan A., Pinciroli V., Rossi A., Tonani R., Volpi D., Tamburin M., Ferrario R., Fusar D., Salvati P.,—Agents combining thromboxane receptor antagonism with thromboxane synthase inhibition:[[[2-(1H-imidazol-1-yl)ethylidene]amino]oxy]alkanoic acids.—J. Med. Chem., 1994, 37, 3588-3604.

[1] = read-out: IC 50: concentration required for replacing 50% of [3H]SQ-29.548 bound to receptors TPα

Affinity: percent of [3H]SQ-29.548 specifically substituted by the examined compound, 10^-6M: 92.3%
Affinity: percent of [3H]SQ-29.548 specifically substituted by the examined compound, 10^-7M: 50.5%
SMILES: O=[N+]([O-])c1ccc(NC2CCCCC2)c(S(=O)(=O)NC(=S)NCc2ccco2)c1 [Compound 42]

IC50: 4.5 nM
inhibition at 1 µM: 98.5%
inhibition at 0.1 µM: 92.7%
SMILES: CCCCCCNC(=O)NS(=O)(=O)c1cc([N+](=O)[O-])ccc1NC1CCCCC1 [Compound 83]

Affinity: percent of [3H]SQ-29.548 specifically substituted by the examined compound, 10^-6M: 77.2%
SMILES: CC(C)NC(=S)NS(=O)(=O)c1cc([N+](=O)[O-])ccc1NC1CCCCC1 [Compound 38]

Affinity: percent of [3H]SQ-29.548 specifically substituted by the examined compound, 10^-6M: 92.2%
SMILES: CCCCCCNc1ccc([N+](=O)[O-])cc1S(=O)(=O)NC(=O)NC(C)(C)C [Compound 59]

Affinity: percent of [3H]SQ-29.548 specifically substituted by the examined compound, 10^-6M: 98.4%
IC50 [1]: 2.82 nM
SMILES: CCCCCNC(=O)NS(=O)(=O)c1cc([N+](=O)[O-])ccc1Nc1ccccc1C [Compound 94]

Affinity: percent of [3H]SQ-29.548 specifically substituted by the examined compound, 10^-6M: 86.5%
Affinity: percent of [3H]SQ-29.548 specifically substituted by the examined compound, 10^-7M: 52.7%
SMILES: CC(C)NC(=O)NS(=O)(=O)c1cc(I)ccc1NC1C=CCCC1 (centres unmarked) [Compound 72]

IC50: 18.1 nM
inhibition at 1 µM: 95.6%
inhibition at 0.1 µM: 76%
SMILES: Cc1ccc(Nc2ccc([N+](=O)[O-])cc2S(=O)(=O)NC(=O)NC(C)C)cc1C [Compound 87]

SMILES: CCCNc1ccc([N+](=O)[O-])cc1S(=O)(=O)NC(=O)NC(C)C [Compound 20]
Affinity: percent of [3H]SQ-29.548 specifically substituted by the examined compound, 10^-6M: 1.6%

Affinity: percent of [3H]SQ-29.548 specifically substituted by the examined compound, 10^-6M: 36.5%
SMILES: CC(C)NC(=O)NS(=O)(=O)c1cc([N+](=O)[O-])ccc1Nc1cccc(C(=O)O)c1 [Compound 53]

Affinity: percent of [3H]SQ-29.548 specifically substituted by the examined compound, 10^-6M: 93.2%
Affinity: percent of [3H]SQ-29.548 specifically substituted by the examined compound, 10^-7M: 67.4%
SMILES: CC(C)NC(=O)NS(=O)(=O)c1cc([N+](=O)[O-])ccc1NC1C=CCCC1 (centres unmarked) [Compound 68]

Affinity: percent of [3H]SQ-29.548 specifically substituted by the examined compound, 10^-6M: 79.9%
Affinity: percent of [3H]SQ-29.548 specifically substituted by the examined compound, 10^-7M: 50.4%
SMILES: CCOC(=O)NS(=O)(=O)c1cc([N+](=O)[O-])ccc1NC1CCCC1 [Compound 45]

Affinity: percent of [3H]SQ-29.548 specifically substituted by the examined compound, 10^-6M: 86.6%
Affinity: percent of [3H]SQ-29.548 specifically substituted by the examined compound, 10^-7M: 52.4%
SMILES: C=CCNC(=O)NS(=O)(=O)c1cc([N+](=O)[O-])ccc1NC1CCCCCC1 [Compound 33]

Affinity: percent of [3H]SQ-29.548 specifically substituted by the examined compound, 10^-6M: 49.6%
SMILES: CC(C)NC(=O)NS(=O)(=O)c1cc(C#N)ccc1NC1CC2CCC1C2 (centres unmarked) [Compound 66]

Affinity: percent of [3H]SQ-29.548 specifically substituted by the examined compound, 10^-6M: 75.6%
SMILES: CC(C)NC(=S)NS(=O)(=O)c1cc([N+](=O)[O-])ccc1NCc1ccccc1 [Compound 36]

IC50: 5.46 nM
inhibition at 1 µM: 96.9%
inhibition at 0.1 µM: 88.6%
SMILES: Cc1ccc(Nc2ccc([N+](=O)[O-])cc2S(=O)(=O)NC(=O)NC(C)C)c(C)c1 [Compound 90]

Affinity: percent of [3H]SQ-29.548 specifically substituted by the examined compound, 10^-6M: 81.0%
Affinity: percent of [3H]SQ-29.548 specifically substituted by the examined compound, 10^-7M: 16.6%
SMILES: CC(C)NC(=S)NS(=O)(=O)c1cc([N+](=O)[O-])ccc1NC1CCCCCCC1 [Compound 15]

IC50: 16.9 nM
inhibition at 1 µM: 94.3%
inhibition at 0.1 µM: 93.3%
SMILES: CC(C)(C)NC(=O)NS(=O)(=O)c1cc([N+](=O)[O-])ccc1NC1CCCCCCC1 [Compound 26]

Affinity: percent of [3H]SQ-29.548 specifically substituted by the examined compound, 10^-6M: 93.1%
SMILES: CC(C)NC(=O)NS(=O)(=O)c1cc([N+](=O)[O-])ccc1NC(C)c1ccccc1 (racemic) [Compound 75]

Affinity: percent of [3H]SQ-29.548 specifically substituted by the examined compound, 10^-6M: 81.9%
Affinity: percent of [3H]SQ-29.548 specifically substituted by the examined compound, 10^-7M: 39.6%
SMILES: CCNC(=O)NS(=O)(=O)c1cc([N+](=O)[O-])ccc1NC1CCCCCC1 [Compound 28]

IC50: 4.5 nM
inhibition at 1 µM: 98.5%
inhibition at 0.1 µM: 98%
SMILES: CCCCNC(=O)NS(=O)(=O)c1cc([N+](=O)[O-])ccc1NC1CCCCC1 [Compound 82]

Affinity: percent of [3H]SQ-29.548 specifically substituted by the examined compound, 10^-6M: 67.2%
SMILES: CC(C)NC(=S)NS(=O)(=O)c1cc([N+](=O)[O-])ccc1NC1CCCCCC1 [Compound 12]

Affinity: percent of [3H]SQ-29.548 specifically substituted by the examined compound, 10^-6M: 83.2%
SMILES: CC(C)NC(=O)NS(=O)(=O)c1cc([N+](=O)[O-])ccc1NC12CC3CC(CC(C3)C1)C2 [Compound 58]

Affinity: percent of [3H]SQ-29.548 specifically substituted by the examined compound, 10^-6M: 72.3%
SMILES: CC(C)NC(=S)NS(=O)(=O)c1cc([N+](=O)[O-])ccc1NC1CCCC1 [Compound 37]

Affinity: percent of [3H]SQ-29.548 specifically substituted by the examined compound, 10^-6M: 57.7%
SMILES: Cc1cccc(Nc2ccc([N+](=O)[O-])cc2S(=O)(=O)NC(=C[N+](=O)[O-])NC2CCCCC2)c1 [Compound 10]

Affinity: percent of [3H]SQ-29.548 specifically substituted by the examined compound, 10^-6M: 79.1%
SMILES: CCCCCCCCCCNc1ccc([N+](=O)[O-])cc1S(=O)(=O)NC(=O)NC(C)C [Compound 60]

IC50: 3.4 nM
inhibition at 1 µM: 98.2%
inhibition at 0.1 µM: 93.3%
SMILES: CC(C)(C)NC(=O)NS(=O)(=O)c1cc([N+](=O)[O-])ccc1NC1CC2CCC1C2 (centres unmarked) [Compound 55]

Affinity: percent of [3H]SQ-29.548 specifically substituted by the examined compound, 10^-6M: 96.6%
SMILES: CC(C)NC(=O)NS(=O)(=O)c1cc([N+](=O)[O-])ccc1N[C@H](C)c1ccccc1 [Compound 79]

IC50: 1.2 nM
inhibition at 1 µM: 98.3%
inhibition at 0.1 µM: 95.6%
SMILES: Cc1cccc(Nc2ccc([N+](=O)[O-])cc2S(=O)(=O)NC(=O)NC(C)(C)C)c1C [Compound 73]

IC50: 7.8 nM
inhibition at 1 µM: 97.9%
inhibition at 0.1 µM: 90.2%
SMILES: CCCCCNC(=O)NS(=O)(=O)c1cc(I)ccc1NC1C=CCCC1 (centres unmarked) [Compound 93]

Affinity: percent of [3H]SQ-29.548 specifically substituted by the examined compound, 10^-6M: 20.1%
SMILES: Cc1cccc(Nc2ccc([N+](=O)[O-])cc2S(=O)(=O)NC(=NC#N)NC(C)C)c1 [Compound 3]

IC50: 1.62 nM
inhibition at 1 µM: 98.8%
inhibition at 0.1 µM: 95.2%
SMILES: CCCCCNC(=O)NS(=O)(=O)c1cc([N+](=O)[O-])ccc1Nc1c(C)cc(C)cc1C [Compound 92]

Affinity: percent of [3H]SQ-29.548 specifically substituted by the examined compound, 10^-6M: 73.7%
SMILES: Cc1cccc(Nc2ccc(C#N)cc2S(=O)(=O)NC(=O)NC(C)C)c1 [Compound 24]

Affinity: percent of [3H]SQ-29.548 specifically substituted by the examined compound, 10^-6M: 98.3%
Affinity: percent of [3H]SQ-29.548 specifically substituted by the examined compound, 10^-7M: 95.8%
IC50 [1]: 1.3 nM
SMILES: Cc1ccc(Nc2ccc([N+](=O)[O-])cc2S(=O)(=O)NC(=O)NC(C)(C)C)cc1 [Compound 67]

Affinity: percent of [3H]SQ-29.548 specifically substituted by the examined compound, 10^-6M: 13.2%
SMILES: CC(C)NC(=O)NS(=O)(=O)c1cc(F)ccc1NC1C=CCCC1 (centres unmarked) [Compound 69]

Affinity: percent of [3H]SQ-29.548 specifically substituted by the examined compound, 10^-6M: 64.7%
SMILES: Cc1cccc(Nc2ccc([N+](=O)[O-])cc2S(=O)(=O)NC(=NC#N)NC(C)(C)C)c1 [Compound 51]

IC50: 107 nM
inhibition at 1 µM: 92.9%
inhibition at 0.1 µM: 42.5%
SMILES: CCCCCCCCNC(=O)NS(=O)(=O)c1cc([N+](=O)[O-])ccc1NC1CCCCC1 [Compound 85]

IC50: 3.5 nM
inhibition at 1 µM: 97.6%
inhibition at 0.1 µM: 93.5%
SMILES: CC(Nc1ccc([N+](=O)[O-])cc1S(=O)(=O)NC(=O)NC(C)(C)C)c1ccccc1 (racemic) [Compound 76]

Affinity: percent of [3H]SQ-29.548 specifically substituted by the examined compound, 10^-6M: 50.0%
SMILES: N#CN=C(NC1CCCCC1)NS(=O)(=O)c1cc([N+](=O)[O-])ccc1NC1CCCC1 [Compound 4]

Affinity: percent of [3H]SQ-29.548 specifically substituted by the examined compound, 10^-6M: 45.0%
SMILES: CCCNc1ccc([N+](=O)[O-])cc1S(=O)(=O)NC(=S)NC(C)C [Compound 35]
